This note sets out measurements from US6894054B2, “Heterocyclic inhibitors of glycine transporter 2” (Telik, Inc., priority 2001, dated 2005).

pIC50: −log10 of the molar value.

The test addresses T1, rat glycine transporter subtype 2 (GlyT2) (Rattus norvegicus, UniProt P58295).
T1 construct: expressed in transfected cells; host or cells: CHO cells
T1 sequence (P58295 1-799): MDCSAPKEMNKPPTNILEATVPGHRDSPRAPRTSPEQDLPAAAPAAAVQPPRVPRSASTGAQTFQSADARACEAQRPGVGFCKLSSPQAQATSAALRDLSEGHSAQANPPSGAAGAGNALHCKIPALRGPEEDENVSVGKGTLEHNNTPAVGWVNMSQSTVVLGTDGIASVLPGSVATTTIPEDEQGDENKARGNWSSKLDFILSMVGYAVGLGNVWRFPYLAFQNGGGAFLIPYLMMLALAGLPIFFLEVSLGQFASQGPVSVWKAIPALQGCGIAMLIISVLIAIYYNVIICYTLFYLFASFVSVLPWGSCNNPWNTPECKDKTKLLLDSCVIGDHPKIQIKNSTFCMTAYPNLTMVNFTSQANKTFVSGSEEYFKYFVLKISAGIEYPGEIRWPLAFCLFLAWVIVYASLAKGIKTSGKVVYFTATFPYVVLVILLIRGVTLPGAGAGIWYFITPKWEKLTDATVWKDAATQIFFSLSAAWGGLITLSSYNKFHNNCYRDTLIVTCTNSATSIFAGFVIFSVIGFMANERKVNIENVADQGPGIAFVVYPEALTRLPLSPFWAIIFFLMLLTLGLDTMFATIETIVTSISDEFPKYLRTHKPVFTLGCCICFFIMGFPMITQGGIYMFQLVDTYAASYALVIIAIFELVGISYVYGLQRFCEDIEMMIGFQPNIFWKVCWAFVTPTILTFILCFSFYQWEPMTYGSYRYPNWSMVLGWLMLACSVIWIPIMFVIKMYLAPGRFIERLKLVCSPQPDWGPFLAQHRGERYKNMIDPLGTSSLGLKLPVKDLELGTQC
Nature of the test: Inhibition of glycine transporter 2: 3H-glycine uptake in CHO cells expressing rat GlyT2. The test is classed as cell-based. Particulars: GlyT2 inhibitory concentration, 15 min preincubation, 10 nM 3H-glycine, 7 min uptake, read-out: GlyT2 Inhib. On the procedure:
CHO cells expressing rat glycine transporter subtype 2 (GlyT2) were grown in high glucose Dulbecco's modified Eagle's medium supplemented with 10% bovine fetal serum at 37° C. in a 5% CO2 atmosphere. Subconfluent cells growing in 24- or 96-well plates were washed with PBS, and were preincubated at 37° C. for 15 min with uptake buffer (100 mM NaCl, 2 mM KCl, 1 mM CaCl2, 1 mM MgCl2, 10 mM HEPES, pH 7.5) containing sample compounds. Uptake was initiated by adding prewarmed ^3H-glycine yielding a 10 nM final glycine concentration, and was terminated after 7 min by aspiration of the buffer. Cells were washed 3 times with ice-cold PBS, and radioactivity was determined by scintillation counting using TopCount. GlyT2 inhibitory concentrations for several compounds of Formula I are given below.
For `CCn1nc(C)cc1-c1nnc(SCc2ccccc2)n1-c1ccccc1` [Compound 7, 3-benzylthio-5-(2-ethyl-5-methyl-3-diazolyl)-4-phenyl-1,2,4-triazole], the pIC50 was 5.18. As to `Clc1cccc(Cl)c1CSc1nnc(-c2cnccn2)s1` [Compound 12, 5-[(2,6-dichlorophenyl)methylthio]-2-(pyrazin-2-yl)-1,3,4-thiadiazole], the pIC50 was 6.05. To `c1ccc(CSc2nnc(CCCCc3nnc(SCc4ccccc4)o3)o2)cc1` [Compound 21, 2,2′-(1,4-butanediyl)bis[5-(benzylthio)-1,3,4-oxadiazole]] belongs 5.96.
